In patent US4414207A, “Rutin poly(H-)sulfate salts and related compounds” (American Cyanamid Company, priority 1982, dated 1983):

What was measured:
activated human C1 = molecular target: T1, activated human C1 (Homo sapiens, UniProt P09871); test: Test Code 026 (C1 inhibitor); assay type: biochemical; conditions: serial dilution assay, twofold dilutions; higher well number indicates higher activity
T1 sequence (P09871 438-688 limits assumed): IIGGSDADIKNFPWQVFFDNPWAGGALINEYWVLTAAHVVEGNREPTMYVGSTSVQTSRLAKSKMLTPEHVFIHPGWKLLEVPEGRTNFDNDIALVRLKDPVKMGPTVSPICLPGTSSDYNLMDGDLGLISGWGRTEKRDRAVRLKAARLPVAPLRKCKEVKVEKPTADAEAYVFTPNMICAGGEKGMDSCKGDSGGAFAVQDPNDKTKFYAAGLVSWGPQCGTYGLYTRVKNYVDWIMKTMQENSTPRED
T1 sequence (P09871 16-437 limits assumed): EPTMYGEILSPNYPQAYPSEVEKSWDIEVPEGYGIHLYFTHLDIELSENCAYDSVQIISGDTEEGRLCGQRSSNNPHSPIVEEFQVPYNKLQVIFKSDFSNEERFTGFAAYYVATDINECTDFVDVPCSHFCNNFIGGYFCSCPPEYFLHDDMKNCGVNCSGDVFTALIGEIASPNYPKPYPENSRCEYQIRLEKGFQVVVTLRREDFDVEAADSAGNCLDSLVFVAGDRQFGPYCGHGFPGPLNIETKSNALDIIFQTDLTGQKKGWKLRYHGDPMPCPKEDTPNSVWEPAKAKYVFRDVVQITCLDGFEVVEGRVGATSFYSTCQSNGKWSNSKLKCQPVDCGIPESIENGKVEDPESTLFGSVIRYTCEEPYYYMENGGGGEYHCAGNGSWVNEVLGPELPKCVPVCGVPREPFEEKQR
Source text: (§1) An active inhibitor protects C2 from C1 and C4; (ii) Test Code 035 (C3-C9 inhibitor)--This test determines the ability of the late components of human complement (C3-C9) to lyse EAC 142 in the presence of appropriate dilutions of the test compound. An active inhibitor protects EAC 142 from lysis by human C3-C9; (iii) Test Code 036 (C-Shunt inhibitor)--In this test human erythrocytes rendered fragile are lysed in autologous serum via the shunt pathway activated by cobra venom factor in the presence of appropriate dilutions of the test compound. Inhibition of the shunt pathway results in failure of lysis; (iv) Forssman Vasculitis Test--Here, the well known complement dependent lesions, Forssman vasculitis, is produced in guinea pigs by intradermal injection of rabbit anti-Forssman antiserum. The lesion is measured in terms of diameter, edema and hemorrhage and the extent to which a combined index of these is inhibited by prior intraperitoneal injection of the test compound at 200 mg/kg is then reported, unless otherwise stated; (v) Forssman Shock Test--Lethal shock is produced in guinea pigs by an i.v. injection of anti-Forssman antiserum and the harmonic mean death time of treated guinea pigs is compared with that of simultaneous controls; (vi) Complement Level Reduction Test--In this test, the above dosed guinea pigs, or others, are bled for serum and the complement level is determined in undiluted serum by the capillary tube method of U.S. Pat. No. 3,876,376 and compared to undosed control guinea pigs; and (vii) Cap 50 Test--Here, appropriate amounts of the test compound are added to a pool of guinea pig serum in vitro, after which the undiluted serum capillary tube assay referred to above is run. The concentration of compound inhibiting 50% is reported, (viii) Guinea Pig Intraperitoneal Test (GPIP)--Guinea Pigs weighing about 300 g. are dosed intraperitoneally (i.p.) with 200 mg/kg of the test compound dissolved in saline and adjusted to pH 7-8. […] Percent inhibition are calculated by comparison with simultaneous controls. […]

[1] = tested on: late components of human complement (C3-C9); test: Test Code 035 (C3-C9 inhibitor); assay type: biochemical; conditions: lysis of EAC 142 by human C3-C9
Source text: as §1

[2] = tested on: shunt pathway activated by cobra venom factor; test: Test Code 036 (C-Shunt inhibitor); assay type: cell-based; conditions: fragile human erythrocytes in autologous serum
Source text: as §1

[3] = tested on: complement activity of sera; test: Guinea Pig Intraperitoneal Test (GPIP); assay type: in vivo; conditions: 200 mg/kg i.p.
Source text: as §1

guinea pigs = test: Forssman Shock Test; assay type: in vivo, guinea pig; conditions: i.v. anti-Forssman antiserum, Control 3.3
Source text: (§2) An active inhibitor protects C2 from C1 and C4; (ii) Test Code 035 (C3-C9 inhibitor)--This test determines the ability of the late components of human complement (C3-C9) to lyse EAC 142 in the presence of appropriate dilutions of the test compound. An active inhibitor protects EAC 142 from lysis by human C3-C9; (iii) Test Code 036 (C-Shunt inhibitor)--In this test human erythrocytes rendered fragile are lysed in autologous serum via the shunt pathway activated by cobra venom factor in the presence of appropriate dilutions of the test compound. Inhibition of the shunt pathway results in failure of lysis; (iv) Forssman Vasculitis Test--Here, the well known complement dependent lesions, Forssman vasculitis, is produced in guinea pigs by intradermal injection of rabbit anti-Forssman antiserum. […] Percent inhibition are calculated by comparison with simultaneous controls. […]

complement = complement inhibiting activity using the tests disclosed herein; conditions: stated in words
Source text: as §2

| Compound | 026 (C1 inhibitor), activity in wells (activated human C1) | 035 (C3-C9 inhibitor) [1] | 036 (C-Shunt inhibitor) [2] | In vivo activity (Guinea Pig) Intraperitoneal % Inhibition, 30 minutes ([3]; serum complement 30 minutes after injection) [%] | In vivo activity (Guinea Pig) Intraperitoneal % Inhibition, 60 minutes ([3]; serum complement 60 minutes after injection) [%] | In vivo activity (Guinea Pig) Intraperitoneal % Inhibition, 120 minutes ([3]; serum complement 120 minutes after injection) [%] | Forssman Shock (harmonic mean death time) (guinea pigs) [min] | complement inhibiting activity (complement) |
| --- | --- | --- | --- | --- | --- | --- | --- | --- |
| Rutin poly(H-)sulfate, trimethylamine salt | +2 wells | N | N |  |  |  |  |  |
| Rutin poly(H-)sulfate, sodium salt | +7 wells | N | N | -79 | -89 | -89 | 17.2 |  |
| Rutin poly(H-)sulfate, sodium salt (original source commercial `Rutin water soluble`) |  |  |  |  |  |  |  | highly active |
| C[C@@H]1O[C@@H](OC[C@H]2O[C@@H](Oc3c(-c4ccc(O)c(O)c4)oc4cc(O)cc(O)c4c3=O)[C@H](O)[C@@H](O)[C@@H]2O)[C@H](O)[C@H](O)[C@H]1O [Rutin] | N | N | N |  |  |  |  |  |
